Results reported in paper PMC12004523, “Integrated Virtual Screening Approach Identifies New CYP19A1 Inhibitors” (Journal of Chemical Information and Modeling, 2025).

Legend:
[1] = target: T1, human CYP19A1 (aromatase) (Homo sapiens, UniProt P11511); assay: cell-based; design: Yeast expressing human CYP19A1/CPR converts testosterone; estradiol in supernatant read by yeast biosensor, flow cytometry; settings: for inhibition at 10 µM: read-out: % inhibition (10 μM); for inhibition at 1 µM: read-out: % inhibition (1 μM)
T1 sequence (P11511 1-503): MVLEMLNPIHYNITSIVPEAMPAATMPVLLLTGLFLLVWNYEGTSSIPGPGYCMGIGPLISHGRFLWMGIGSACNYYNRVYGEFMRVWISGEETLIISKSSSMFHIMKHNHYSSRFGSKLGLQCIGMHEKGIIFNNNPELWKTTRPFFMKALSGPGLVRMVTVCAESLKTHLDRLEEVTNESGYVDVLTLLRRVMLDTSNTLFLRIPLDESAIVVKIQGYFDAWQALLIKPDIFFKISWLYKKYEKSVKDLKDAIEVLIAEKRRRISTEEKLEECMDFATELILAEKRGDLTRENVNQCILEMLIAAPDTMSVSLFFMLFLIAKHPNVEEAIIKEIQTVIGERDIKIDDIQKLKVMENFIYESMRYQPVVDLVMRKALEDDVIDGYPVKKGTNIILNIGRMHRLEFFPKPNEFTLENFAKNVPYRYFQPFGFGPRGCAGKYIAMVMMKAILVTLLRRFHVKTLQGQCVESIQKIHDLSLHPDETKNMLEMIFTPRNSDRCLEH
T1 sequence (P16435 2-677 partner): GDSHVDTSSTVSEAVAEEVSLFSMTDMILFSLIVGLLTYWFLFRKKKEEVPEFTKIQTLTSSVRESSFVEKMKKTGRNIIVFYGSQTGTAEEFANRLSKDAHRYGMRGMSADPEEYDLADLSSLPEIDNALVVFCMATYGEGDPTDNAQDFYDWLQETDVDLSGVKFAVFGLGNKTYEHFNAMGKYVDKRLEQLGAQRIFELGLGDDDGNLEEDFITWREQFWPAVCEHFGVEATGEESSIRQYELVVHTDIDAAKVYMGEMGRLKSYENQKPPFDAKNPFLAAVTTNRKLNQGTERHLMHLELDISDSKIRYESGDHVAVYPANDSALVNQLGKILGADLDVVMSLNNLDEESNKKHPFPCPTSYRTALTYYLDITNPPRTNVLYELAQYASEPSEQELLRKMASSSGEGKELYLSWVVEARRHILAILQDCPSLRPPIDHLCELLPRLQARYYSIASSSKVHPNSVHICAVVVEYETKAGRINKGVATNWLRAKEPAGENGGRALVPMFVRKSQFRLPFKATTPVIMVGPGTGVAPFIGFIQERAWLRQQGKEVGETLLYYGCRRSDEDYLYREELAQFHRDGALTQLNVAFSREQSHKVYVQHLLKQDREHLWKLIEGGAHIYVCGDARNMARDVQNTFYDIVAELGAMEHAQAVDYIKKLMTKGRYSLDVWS
Description: A 14-h precultivation period ensured that the aromatase catalytic capacity remained consistent across all independent experiments and the inhibitor cannot act on P450 expression levels. The initial OD600 was diluted to 0.04, and then the yeast culture’s OD600 was measured and adjusted to 2.00 with fresh SDC medium. One mL of yeast solution (OD600 = 2.00) was poured into the wells of a 48-well deep-well cell culture plate (Axygen P-5 ML-48-C). Subsequently, 1 mL of SDC medium containing 120 nM testosterone and either 10 μM or 1 μM of the inhibitor was added to each well containing the yeast solution. The mixture was incubated at 30 °C and 240 rpm for 2 h. After incubation, 1.5 mL of the mixture from each well was transferred to 2 mL tubes and centrifuged at 16,000 rpm to pellet the yeast cells. Then, 1.2 mL of the supernatant was moved to 1.5 mL tubes and labeled according to the inhibitor concentration. For each sample, 1 mL of the supernatant was transferred to a different well of a 48-well deep-well plate. Next, 980 μL of SDC medium and 20 μL of the precultured byMM1984 biosensor cell solution (OD600 adjusted to 5.00 after 14 h of preculture) were added to each well. Finally, flow cytometry was performed as previously described. The entire assay was repeated in three independent experiments to calculate the mean values. […] Initially, these inhibitors were applied at a final concentration of 10 μM. […] In addition, 9a lacks a Cl atom and 9b lacks a keto group in comparison to 9. […] Several factors were considered to avoid assay artifacts.[46] The biosensor gene circuit used in this study is orthogonal to the yeast chassis,[47] ensuring no interference between the biosensor and the yeast host, thus preventing false positives.

[2] = target: T1, human CYP19A1 (aromatase); assay: cell-based; design: Whole-yeast human CYP19A1/CPR testosterone aromatization; estradiol quantified by yeast biosensor fluorescence, flow cytometry, per cent of control; settings: Saccharomyces cerevisiae byMM1712; 1 uM inhibitor, testosterone substrate; read-out: % of control remaining
Description: Initially, these inhibitors were applied at a final concentration of 10 μM. […] In addition, 9a lacks a Cl atom and 9b lacks a keto group in comparison to 9. […] (a) Illustration of the enzymatic assay based on heterologous expression of human CYP19A1 used for testing candidate CYP19A1 inhibitors. […] Data are presented as mean ± SEM (n = 3).

[3] = target: T1, human CYP19A1 (aromatase); assay: aromatase inhibition in yeast expressing human CYP19A1 and CPR, estradiol biosensor (yEGFP, flow cytometry); assay type: cell-based

inhibition at 10 µM [1] [%] | remaining activity at 1 µM [2] [%] | IC50 [3] [nM] | inhibition at 1 µM [1] [%] | SMILES
80.4 | – | – | – | N#Cc1ccc(C(c2ccc(C#N)cc2)n2cncn2)cc1 [letrozole]
– | 13 ± 2 | 271 ± 51 | – | CC(NC(=O)c1cc2cc(Cl)ccc2oc1=O)c1ccc(-n2ccnc2)cc1 (racemic) [compound 9, N-(1-(4-(1H-imidazol-1-yl)phenyl)ethyl)-6-chloro-2-oxo-2H-chromene-3-carboxamide]
81.7 | 57 ± 7 | – | 44.3 | CC1(c2ccc(Cl)cc2Cl)OCC(Cn2cncn2)O1 (stereo not shown) [compound 8]
38.1 | – | – | – | O=c1cc(Cn2ccnc2)c2cc(O)c(-c3ccccc3)cc2o1 [compound 10]
– | – | 1130 ± 158 | – | CC1(c2ccc(Cl)cc2Cl)OCC(Cn2cncn2)O1 (stereo not shown) [compound 8, 8]
96.7 | – | – | 89.7 | CC(NC(=O)c1cc2cc(Cl)ccc2oc1=O)c1ccc(-n2ccnc2)cc1 (stereo not shown) [compound 9]

Continued, compound first:

SMILES | inhibition at 10 µM [1] [%] | remaining activity at 1 µM [2] [%] | IC50 [3] [nM] | inhibition at 1 µM [1] [%]
CSc1ccc2nc(N3CC(Cn4ccnc4)C3)sc2c1 [compound 2] | 30.9 | – | – | –
COc1ccc(-c2cn3cccnc3n2)cc1NC(=O)Nc1ccc(F)cc1 [compound 7] | 25.6 | – | – | –
O=C(NCc1ccc(-n2ccnc2)cc1)c1cc2ccccc2oc1=O [9a] | 87.4 | 50 ± 1 | 1040 ± 63 | 51.9
O=C(Cc1c(F)cccc1Cl)N1CCC(Cn2ccnc2)CC1 [compound 4] | 22.8 | – | – | –
O=C(NCc1ccc(-n2ccnc2)cc1)C1=Cc2cc(Cl)ccc2OC1 [9b] | 85 | 58 ± 1 | 1250 ± 190 | 43.8
O=C(Nc1cccc(-c2cn3cccnc3n2)c1)c1ccc(Cl)cc1Cl [compound 1] | 25.9 | – | – | –
